In patent publication US8551947B2, “Treatment of hibernating myocardium with an exendin peptide” (Amylin Pharmaceuticals, LLC, priority 2000, dated 2013):
No end group written: not given here.

What was measured:
pancreas = conditions: cited from earlier work
[1] = test system: HM dog model (pacing-induced heart failure); experiment: Paced dog model of hibernating myocardium: 48 h i.v. infusion, plasma catecholamines and hemodynamics; assay type: in vivo, Beagle dogs; conditions: for LV contractility (dP/dt) restored to: Dog A (FIG. 1); for LV ejection fraction (LVEF) improved to: Dog A (FIG. 2); for LV wall thickening: Dog A (FIG. 3); for Cardiac output (CO): Dog A (FIG. 4); for CBF (coronary blood flow) / LVEDP (LV end-diastolic pressure) / LVP (left ventricular pressure) / MVO2 (myocardial oxygen consumption) / dP/dt (left ventricular contractility) / NE (plasma norepinepherine): GLP-1 group
From the text: The “paced dog” model, used in the Example below, provides a system to study NM, because the exertion of the heart exceeds the heart's ability to respond, which creates an energy-limited situation. Other suitable animal models are available to study chronically dysfunctional viable myocardium, in dogs and pigs, for example, which allow laboratory study of therapeutic regimens. […] Canty a al., Am. J. Physiol, 277; H417-H422 (1999). Similar animal models in diabetic dogs, mice and rats are available for the study of DCM. Bell (1995); Fein (1990).
Beagle dogs were fitted with telemetry devices that permit tong-term ambulatory data collection in conscious animals. These devices measured LV pressure, myocardial oxygen consumption (MVO2, an expression of myocardial efficiency), coronary flow (CBF), and cardiac output (CO). The dogs were “paced,” such that heart rate was forced up to about 240 beats per minute, for 3-4 weeks, which induces moderate HM in a predictable manner. This HM dog model is an accepted model for assessing the effectiveness of treatments for HM. Kiuchi et al., “Myocardial beta-adrenergic receptor function during the development of pacing-induced heart failure.” J. Clin. Invest. 91: 907-914 (1993).
During the treatment period, “pacing” was discontinued. Plasma catecholamines were assessed before and after infusion, along with LV pressures, coronary and systemic hemodynamics, and MVO2.

[2] = 48 h i.v. infusion 1.5 pmol/kg/min, after vs before
[3] = AFTER 48 h i.v. infusion 1.5 pmol/kg/min

For “Glu Gly Thr Phe Thr Ser Asp Val Ser Ser Tyr Leu Glu Gly Gln Ala Ala Lys Glu Phe Ile Ala Trp Leu Val Lys Gly Arg (NH2) (EGTFTSDVSSYLEGQAAKEFIAWLVKGR-NH2) [SEQ ID NO:6]”, the “stimulation of production or release of insulin from the pancreas” value (pancreas) is given as “do not stimulate production or release of insulin”.

For “Glu Gly Thr Phe Thr Ser Asp Val Ser Ser Tyr Leu Glu Gly Gln Ala Ala Lys Glu Phe Ile Ala Trp Lau Val Lys Gly Arg Gly (EGTFTSDVSSYLEGQAAKEFIAWLVKGRG; not fully specified; printed as Glu Gly Thr Phe Thr Ser Asp Val Ser Ser Tyr Leu Glu Gly Gln Ala Ala Lys Glu Phe Ile Ala Trp Lau Val Lys Gly Arg Gly) [SEQ ID NO:5]”, the “stimulation of production or release of insulin from the pancreas” value (pancreas) is given as “do not stimulate production or release of insulin”.

With rGLP-1 (7-36) amide the “Effect of treatment on LV end-diastolic pressure (LVEDP), in words” value [1, 2] was “significantly decreasing”, the “Effect of treatment on cardiac output (CO), in words” value [1, 2] was “significantly (*p<0.05) increased” and the “Effect of treatment on coronary blood flow (CBF), in words” value [1, 2] was “significantly (*p<0.05) increased”. The “Effect of treatment on left ventricular contractility (LV dP/dt), in words” value [1, 2] was “significantly (*p<0.05) increased”, the “Effect of treatment on left ventricular pressure (LVP), in words” value [1, 2] was “significantly (*p<0.05) increased” and the “Effect of treatment on myocardial oxygen consumption (MVO2), in words” value [1, 2] was “significantly (*p<0.05) increased”. The “LV contractility (dP/dt) restored to” value ([1]; 24 hours of treatment, pacing had reduced contractility by 60%) was 80 % of baseline, the “LV contractility (dP/dt) restored to” value ([1]; 48 hours of treatment) was 90 % of baseline and the “LV ejection fraction (LVEF) improved to” value ([1]; 24 hours of treatment, pacing had reduced LVEF by 40%) was 88 % of the baseline value. For the same substance, the “LV ejection fraction (LVEF) improved to” value ([1]; 48 hours of treatment) was 95 % of the baseline value, the LV wall thickening ([1]; 24 hours of treatment, pacing had reduced wall thickening by 20%) was “recovered” and the LV wall thickening ([1]; 48 hours of treatment) was 147 % of the baseline value. The “Cardiac output (CO)” value ([1]; 24 hours of treatment, pacing had reduced CO by 30%) was “restored to baseline levels”, the “Cardiac output (CO)” value ([1]; 48 hours of treatment) was 116 % of baseline and the “CBF (coronary blood flow)” value [1, 3] was 37 ± 3 mL/min. The “LVEDP (LV end-diastolic pressure)” value [1, 3] was 15 ± 1 mm Hg, the “LVP (left ventricular pressure)” value [1, 3] was 108 ± 2 mm Hg and the “MVO2 (myocardial oxygen consumption)” value [1, 3] was 297 ± 16 ml O2/min. The “dP/dt (left ventricular contractility)” value [1, 3] was 2212 ± 86 mm Hg/s, the “NE (plasma norepinepherine)” value ([1]; AFTER 48 h i.v. infusion 1.5 pmol/kg/min, *p<0.05) was 1.62 ± 0.11* nmol/ml and the “NE (plasma norepinepherine)” value ([1]; AFTER 48 h i.v. infusion 1.5 pmol/kg/min, *p<0.05, listed as CLP-1) was 1.62 ± 0.11 nmol/mL. The “CBF (coronary blood flow)” value ([1]; BEFORE infusion) was 27 ± 1 mL/min, the “LVEDP (LV end-diastolic pressure)” value ([1]; BEFORE infusion) was 25 ± 1 mm Hg and the “LVP (left ventricular pressure)” value ([1]; BEFORE infusion) was 98 ± 2 mm Hg. The “MVO2 (myocardial oxygen consumption)” value ([1]; BEFORE infusion) was 246 ± 18 ml O2/min, the “dP/dt (left ventricular contractility)” value ([1]; BEFORE infusion) was 1127 ± 86 mm Hg/s and the “NE (plasma norepinepherine)” value ([1]; BEFORE infusion (after 3-4 weeks pacing), five dogs) was 2.30 ± 0.15 nmol/mL. For the same substance, the “NE (plasma norepinepherine)” value ([1]; BEFORE infusion (after 3-4 weeks pacing), five dogs, listed as CLP-1) was 2.30 ± 0.15 nmol/mL.
